Tests used:
Assay in all cases: phosphoenolpyruvate titration of purified optical probe (fluorescence ratio)
Assay type in all cases: binding
Conditions in all cases: phosphoenolpyruvate 0 to 10 mM, purified probe treated 10 minutes, ex 420/485 nm, em 528 nm
[1] = target: T1, Thermus thermophilus TtPFK optical probe 254/255-TtPFK-cpYFP variant, TtPFK N59H/I253K/Q254L/R255L/G256F, cpYFP Y1S (Thermus thermophilus, UniProt P21777, form not given/G256F/I253K/N59H/Q254L/R255L)
T1 construct: the numbering corresponds to the full length of the phosphoenolpyruvate-sensitive polypeptide; His-tag; made in house; host or cells: E. coli BL21 (DE3)
T1 sequence (P21777 other isoform, or with tags, fused parts or gaps N59H, form open): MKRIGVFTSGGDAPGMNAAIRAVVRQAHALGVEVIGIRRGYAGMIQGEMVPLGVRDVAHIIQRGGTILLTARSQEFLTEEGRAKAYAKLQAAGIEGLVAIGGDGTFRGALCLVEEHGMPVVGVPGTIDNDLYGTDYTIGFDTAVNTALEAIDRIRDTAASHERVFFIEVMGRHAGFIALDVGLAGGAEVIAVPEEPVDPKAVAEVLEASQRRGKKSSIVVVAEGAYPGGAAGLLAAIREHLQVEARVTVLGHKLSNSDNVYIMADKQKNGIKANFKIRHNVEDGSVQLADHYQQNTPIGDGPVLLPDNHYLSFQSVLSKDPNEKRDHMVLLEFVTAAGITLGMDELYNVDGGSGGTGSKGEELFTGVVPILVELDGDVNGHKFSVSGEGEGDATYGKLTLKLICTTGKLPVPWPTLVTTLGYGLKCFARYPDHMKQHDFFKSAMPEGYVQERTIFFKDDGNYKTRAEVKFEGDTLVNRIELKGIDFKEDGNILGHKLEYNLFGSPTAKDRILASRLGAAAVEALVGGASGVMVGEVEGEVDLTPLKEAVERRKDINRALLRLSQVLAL
Description: (§1) • 1. The expression vectors (for example, a phosphoenolpyruvate optical probe expression vector based on pCDF.) were transformed into BL21 (DE3) cells, incubated inverted overnight, and the clones were picked from the plates into 250 mL Erlenmeyer flasks, placed in a shaker at 37 °C and incubated at 220 rpm to OD=0.4-0.8, then 1/1000 (V/V) of IPTG (1 M) was added to induce expression at 18 °C for 24-36 hours. • 2. Upon completion of inducible expression, cells were harvested by centrifugation at 4000 rpm for 30 min, resuspended in 50 mM phosphate buffer and disrupted ultrasonically until the broth were clear, centrifuged at 9600 rpm at 4 °C for 20 min. • 3. The centrifuged supernatant was used to obtain protein by purification through a self-packed nickel column affinity chromatography column, and the protein obtained after nickel column affinity chromatography was further used to obtain protein dissolved in 100 mM HEPES buffer (pH 7.4). • 4. After purified proteins were subjected to SDS-PAGE, probes were diluted to a protein solution having a final concentration of 0.2-5 µM using assay buffer (100 mm HEPES, 100 mM NaCl, pH 7.4). Phosphoenolpyruvate was formulated as a stock solution at a final concentration of 50 mM with the assay buffer (100 mM HEPES, 100 mM NaCl, pH 7.4). • 5. 100 µl 1 µM of protein solution was taken, incubated at 37 °C for 10 min, phosphoenolpyruvate was added for titration, and the fluorescence intensity of 528 nm emission after 420 nm and 485 nm fluorescence excitation of the protein was measured. The fluorescence excitation and emission determination of the samples were done using a multifunctional fluorescence microplate reader. • 6. 100 µl 1 µM of protein solution was taken, incubated at 37 °C for 10 min, and phosphoenolpyruvate was added to determine the absorption and fluorescence spectra of the proteins. Determination of the absorption and fluorescence spectra of the samples was done by spectrophotometer and spectrofluorometer.
(§2) For the 254/255-TtPFK-cpYFP obtained in Example 2 and the 254/255-TtPFK-I253G/Q254L/R255L/G256F-cpYFP-Y1P, 254/255-TtPFK-I253K/Q254L/R255L/G256F-cpYFP-Y1S and 254/256-TtPFK-I253Q/Q254L/G256V/G257L-cpYFP-Y1T/N246F optical probes obtained in Example 6, amino acid were mutated at positions R21, R25, V54, R55, V57, A58, N59, I60, I61, R155, G186, R212, G213, K214, K215, S216 and L320 in the phosphoenolpyruvate binding pocket, and at positions R72, R163, R172 and R246 in the ATP binding pocket to adjust the affinity of the phosphoenolpyruvate optical probe to phosphoenolpyruvate and the substrate specificity. The probes were linearized by reverse PCR, and the sequences of the mutation sites were introduced into the primers. The obtained PCR products were subjected to homologous recombination to obtain plasmids containing the above site mutations. The mutant plasmids were transformed into BL21 (DE3) for induced expression, and the mutant probe proteins were purified for the phosphoenolpyruvate response test. The detection signal of the fusion fluorescent protein containing 2 mM phosphoenolpyruvate was divided by the detection signal of the fusion fluorescent protein without phosphoenolpyruvate. […]

[2] = target: T2, Thermus thermophilus TtPFK optical probe 254/255-TtPFK-cpYFP variant, TtPFK V54K/I253G/Q254L/R255L/G256F, cpYFP Y1P (Thermus thermophilus, UniProt P21777, form not given/G256F/I253G/Q254L/R255L/V54K)
T2 construct: the numbering corresponds to the full length of the phosphoenolpyruvate-sensitive polypeptide; His-tag; made in house; host or cells: E. coli BL21 (DE3)
T2 sequence (P21777 other isoform, or with tags, fused parts or gaps V54K, form open): as the sequence (P21777 other isoform, or with tags, fused parts or gaps N59H, form open) above, with V54K, H59N, K253G, S255P counted along it
Description: as §1, §2

[3] = target: T3, Thermus thermophilus TtPFK optical probe 254/255-TtPFK-cpYFP variant, TtPFK V54Q/I253G/Q254L/R255L/G256F, cpYFP Y1P (Thermus thermophilus, UniProt P21777, form not given/G256F/I253G/Q254L/R255L/V54Q)
T3 construct: the numbering corresponds to the full length of the phosphoenolpyruvate-sensitive polypeptide; His-tag; made in house; host or cells: E. coli BL21 (DE3)
T3 sequence (P21777 other isoform, or with tags, fused parts or gaps V54Q, form open): as the sequence (P21777 other isoform, or with tags, fused parts or gaps N59H, form open) above, with V54Q, H59N, K253G, S255P counted along it
Description: as §1, §2

[4] = target: T4, Thermus thermophilus TtPFK optical probe 254/256-TtPFK-cpYFP variant, TtPFK G213T/I253Q/Q254L/G256V/G257L, cpYFP Y1T/N246F (Thermus thermophilus, UniProt P21777, form not given/G213T/G256V/G257L/I253Q/Q254L)
T4 construct: the numbering corresponds to the full length of the phosphoenolpyruvate-sensitive polypeptide; His-tag; made in house; host or cells: E. coli BL21 (DE3)
T4 sequence (P21777 other isoform, or with tags, fused parts or gaps G213T, form open): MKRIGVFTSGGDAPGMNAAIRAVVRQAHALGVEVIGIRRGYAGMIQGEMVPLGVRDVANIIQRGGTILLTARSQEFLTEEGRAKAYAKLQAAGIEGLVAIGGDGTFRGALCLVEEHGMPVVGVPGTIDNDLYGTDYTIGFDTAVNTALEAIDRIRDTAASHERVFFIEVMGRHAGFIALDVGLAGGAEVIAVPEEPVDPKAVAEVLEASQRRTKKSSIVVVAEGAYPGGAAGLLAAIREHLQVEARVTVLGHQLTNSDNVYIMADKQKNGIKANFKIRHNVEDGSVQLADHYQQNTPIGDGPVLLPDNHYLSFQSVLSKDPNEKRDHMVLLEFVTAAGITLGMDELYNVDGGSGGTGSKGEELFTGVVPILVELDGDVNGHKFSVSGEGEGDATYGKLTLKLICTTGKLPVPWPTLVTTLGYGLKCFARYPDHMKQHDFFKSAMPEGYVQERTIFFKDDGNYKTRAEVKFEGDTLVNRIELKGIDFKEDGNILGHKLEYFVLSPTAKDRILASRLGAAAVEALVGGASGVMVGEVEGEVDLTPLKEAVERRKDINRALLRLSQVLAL
Description: as §1, §2

[5] = target: T5, Thermus thermophilus TtPFK optical probe 254/256-TtPFK-cpYFP variant, TtPFK K215E/I253Q/Q254L/G256V/G257L, cpYFP Y1T/N246F (Thermus thermophilus, UniProt P21777, form not given/G256V/G257L/I253Q/K215E/Q254L)
T5 construct: the numbering corresponds to the full length of the phosphoenolpyruvate-sensitive polypeptide; His-tag; made in house; host or cells: E. coli BL21 (DE3), pCDF vector
T5 sequence (P21777 other isoform, or with tags, fused parts or gaps K215E, form open): as the sequence (P21777 other isoform, or with tags, fused parts or gaps G213T, form open) above, with T213G, K215E counted along it
Description: as §1, §2

[6] = target: T6, Thermus thermophilus TtPFK optical probe 254/256-TtPFK-cpYFP variant, TtPFK S216L/I253Q/Q254L/G256V/G257L, cpYFP Y1T/N246F (Thermus thermophilus, UniProt P21777, form not given/G256V/G257L/I253Q/Q254L/S216L)
T6 construct: the numbering corresponds to the full length of the phosphoenolpyruvate-sensitive polypeptide; His-tag; made in house; host or cells: E. coli BL21 (DE3), pCDF vector
T6 sequence (P21777 other isoform, or with tags, fused parts or gaps S216L, form open): as the sequence (P21777 other isoform, or with tags, fused parts or gaps G213T, form open) above, with T213G, S216L counted along it
Description: as §1, §2

[7] = target: T7, Thermus thermophilus TtPFK optical probe 254/256-TtPFK-cpYFP variant, TtPFK S216Y/I253Q/Q254L/G256V/G257L, cpYFP Y1T/N246F (Thermus thermophilus, UniProt P21777, form not given/G256V/G257L/I253Q/Q254L/S216Y)
T7 construct: His-tag; made in house; host or cells: E. coli BL21 (DE3), pCDF vector
T7 sequence (P21777 other isoform, or with tags, fused parts or gaps S216Y, form open): as the sequence (P21777 other isoform, or with tags, fused parts or gaps G213T, form open) above, with T213G, S216Y counted along it
Description: as §1, §2

[8] = target: T8, Thermus thermophilus TtPFK optical probe 254/256-TtPFK-cpYFP variant, TtPFK V54Q/I253Q/Q254L/G256V/G257L, cpYFP Y1T/N246F (Thermus thermophilus, UniProt P21777, form not given/G256V/G257L/I253Q/Q254L/V54Q)
T8 construct: the numbering corresponds to the full length of the phosphoenolpyruvate-sensitive polypeptide; His-tag; made in house; host or cells: E. coli BL21 (DE3)
T8 sequence (P21777 other isoform, or with tags, fused parts or gaps V54Q, form open): as the sequence (P21777 other isoform, or with tags, fused parts or gaps G213T, form open) above, with V54Q, T213G counted along it
Description: as §1, §2

C=C(OP(=O)(O)O)C(=O)O [phosphoenolpyruvate, Phosphoenolpyruvate]
Kd [1]: 87.7 µM | Kd [2]: 267 µM | Kd [3]: 769 µM | Kd [4]: 199 µM | Kd [5]: 249 µM | Kd [6]: 1.39 µM | Kd [7]: 2.36 µM | Kd [8]: 281 µM

— patent EP4624497A1, “PHOSPHOEN[…] PROBE, PREPARATION METHOD THEREFOR AND APPLICATION THEREOF” (priority 2022, dated 2024)
